According to patent publication US11089783B2, “2-(het)aryl-substituted fused heterocycle derivatives as pesticides” (Bayer Aktiengesellschaft, priority 2017, dated 2021):

How the values were obtained:
Format in all cases: in vivo
[1] = test system: Ctenocephalides felis; test: Ctenocephalides felis oral test; details: 100 ppm, after 2 days
Method: Solvent: dimethyl sulfoxide To produce a suitable active ingredient formulation, 10 mg of active ingredient are mixed with 0.5 ml of dimethyl sulfoxide. Dilution with citrated cattle blood gives the desired concentration. About 20 unfed adult cat fleas (Ctenocephalides felis) are placed into a chamber which is closed at the top and bottom with gauze. A metal cylinder whose bottom end is closed with parafilm is placed onto the chamber. The cylinder contains the blood/active ingredient formulation, which can be imbibed by the fleas through the parafilm membrane. After 2 days, the kill in % is determined. 100% means that all of the fleas have been killed; 0% means that none of the fleas have been killed.

[2] = test system: Phaedon cochleariae; test: Phaedon cochleariae spray test (PHAECO), Chinese cabbage leaf discs; details: Phaedon cochleariae, foliar, 168 h; for pest or weed control at 100 g/ha: 7 days (7 dat), read-out: efficacy
Method: (§1) [table] To produce a suitable active ingredient formulation, 1 part by weight of active ingredient is dissolved with the specified parts by weight of solvent and made up to the desired concentration with water containing an emulsifier concentration of 1000 ppm. To produce further test concentrations, the formulation is diluted with emulsifier-containing water. Discs of Chinese cabbage leaves (Brassica pekinensis) are sprayed with an active ingredient formulation of the desired concentration and, after drying, populated with larvae of the mustard beetle (Phaedon cochleariae). After 7 days, the efficacy in % is determined. 100% means that all the beetle larvae have been killed; 0% means that no beetle larvae have been killed. [table] To produce an appropriate active ingredient formulation, 1 part by weight of active ingredient is dissolved with the stated parts by weight of solvent and made up with water containing an emulsifier concentration of 1000 ppm until the desired concentration is attained. For production of further test concentrations, the mixture is diluted with emulsifier-containing water. Discs of chinese cabbage leaves (Brassica pekinensis) are sprayed with an active ingredient formulation of the desired concentration and, after drying, populated with larvae of the mustard beetle (Phaedon cochleariae). After the desired time, the efficacy in % is determined. 100% means that all beetle larvae have been killed; 0% means that no beetle larvae have been killed.

[3] = test system: Lucilia cuprina; test: Lucilia cuprina test; details: 48 h, L1 larvae, after 2 days, read-out: efficacy (kill)
Method: Solvent: dimethyl sulfoxide To produce a suitable active ingredient formulation, 10 mg of active ingredient are mixed with 0.5 ml of dimethyl sulfoxide, and the concentrate is diluted with water to the desired concentration. About 20 L1 larvae of the Australian sheep blowfly (Lucilia cuprina) are transferred into a test vessel containing minced horsemeat and the active ingredient formulation of the desired concentration. After 2 days, the kill in % is determined. 100% means that all the larvae have been killed; 0% means that no larvae have been killed.

[4] = test system: Myzus persicae; test: Myzus persicae oral test; details: 120 h, after 5 days, read-out: efficacy
Method: [table] To produce a suitable active ingredient formulation, 1 part by weight of active ingredient is dissolved with the stated parts by weight of solvent and made up to the desired concentration with water. 50 μl of the active ingredient preparation are transferred into microtitre plates and made up to a final volume of 200 μl with 150 μl of IPL41 insect medium (33%+15% sugar). Subsequently, the plates are sealed with parafilm, which a mixed population of green peach aphids (Myzus persicae) within a second microtitre plate is able to puncture and imbibe the solution. After 5 days, the efficacy in % is determined. 100% means that all the aphids have been killed; 0% means that no aphids have been killed.

[5] = test system: Myzus persicae; test: Myzus persicae spray test (MYZUPE), Chinese cabbage leaf discs; details: Myzus persicae, foliar, 120 h
Method: as §1, with “pekinensis) infested by all stages of the green peach aphid (Myzus persicae)” for “pekinensis)”, “concentration.” for “concentration and, after drying, populated with larvae of the mustard beetle (Phaedon cochleariae).”, “5” for “7”, “aphids” for “beetle larvae”

[6] = test system: Ctenocephalides felis; test: Ctenocephalides felis in vitro contact test with adult cat fleas; details: 5 μg/cm^2 (=500 g/ha), after 48 h
Method: For the coating of the test tubes, 9 mg of active ingredient are first dissolved in 1 ml of acetone p.a. and then diluted to the desired concentration with acetone p.a. 250 μl of the solution are distributed homogeneously on the inner walls and the base of a 25 ml glass tube by turning and rocking on an orbital shaker (rocking rotation at 30 rpm for 2 h). With 900 ppm of active ingredient solution and internal surface area 44.7 cm^2, given homogeneous distribution, an area-based dose of 5 μg/cm^2 is achieved. After the solvent has evaporated off, the tubes are populated with 5-10 adult cat fleas (Ctenocephalides felis), sealed with a perforated plastic lid and incubated in a horizontal position at room temperature and ambient humidity. After 48 h, efficacy is determined. To this end, the tubes are stood upright and the fleas are knocked to the base of the tube. Fleas which remain motionless at the base or move in an uncoordinated manner are considered to be dead or moribund. […] 100% efficacy means that all the fleas were dead or moribund. 0% efficacy means that no fleas were harmed.

[7] = test system: Meloidogyne incognita; test: Meloidogyne incognita test (MELGIN); details: Meloidogyne incognita, 336 h, 14 days (14 dat), read-out: efficacy (nematicidal, gall formation)
Method: [table] To produce a suitable active ingredient formulation, 1 part by weight of active ingredient is mixed with the stated amount of solvent and the concentrate is diluted to the desired concentration with water. Vessels are filled with sand, active ingredient solution, an egg/larvae suspension of the southern root-knot nematode (Meloidogyne incognita) and lettuce seeds. The lettuce seeds germinate and the plants develop. The galls develop on the roots. After 14 days, the nematicidal efficacy in % is determined by the formation of galls. 100% means that no galls were found; 0% means that the number of galls on the treated plants corresponds to the untreated control. [table] To produce an appropriate active ingredient formulation, 1 part by weight of active ingredient is mixed with the specified amount of solvent and the concentrate is diluted to the desired concentration with water. Vessels are filled with sand, active ingredient solution, an egg/larvae suspension of the southern root-knot nematode (Meloidogyne incognita) and lettuce seeds. The lettuce seeds germinate and the plants develop. The root-knots develop on the roots. After the desired time, the nematicidal effect is determined from the formation of root-knots in %. 100% means that no root-knots were found; 0% means that the number of root-knots on the treated plants corresponds to that on the untreated control.

[8] = test system: Nezara viridula; test: Nezara viridula spray test (NEZARA / NEZAVI); details: Nezara viridula, 96 h, 4 dat, read-out: % efficacy
Method: [table] To produce an appropriate active ingredient formulation, 1 part by weight of active ingredient is dissolved with the specified parts by weight of solvent and made up with water containing an emulsifier concentration of 1000 ppm until the desired concentration is attained. To produce further test concentrations, the mixture is diluted with emulsifier-containing water. If addition of ammonium salts or/and penetrants is required, these are each added to the preparation solution in a concentration of 1000 ppm. Barley plants (Hordeum vulgare) infected with larvae of the southern green shield bug (Nezara viridula) are sprayed with an active ingredient formulation of the desired concentration. After the desired time, the efficacy in % is determined. 100% means that all bugs have been killed; 0% means that no bugs have been killed.

[9] = test system: Tetranychus urticae; test: Tetranychus urticae spray test, OP-resistant (TETRUR); details: Tetranychus urticae, 144 h; TETRUR, 100 g/ha, 6 dat; read-out: % efficacy
Method: [table] To produce a suitable active ingredient formulation, 1 part by weight of active ingredient is dissolved with the specified parts by weight of solvent and made up to the desired concentration with water containing an emulsifier concentration of 1000 ppm. To produce further test concentrations, the formulation is diluted with emulsifier-containing water. Discs of bean leaves (Phaseolus vulgaris) infested with all stages of the greenhouse red spider mite (Tetranychus urticae) are sprayed with an active ingredient formulation of the desired concentration. After 6 days, the efficacy in % is determined. 100% means that all the spider mites have been killed; 0% means that no spider mites have been killed.

[10] = test system: Myzus persicae; test: Myzus persicae spray test (MYZUPE S), bell pepper plants; details: 144 h, 6 dat, read-out: % efficacy
Method: [table] To produce an appropriate active ingredient formulation, 1 part by weight of active ingredient is dissolved with the specified parts by weight of solvent and made up with water containing an emulsifier concentration of 1000 ppm until the desired concentration is attained. To produce further test concentrations, the mixture is diluted with emulsifier-containing water. If addition of ammonium salts or/and penetrants is required, these are each added to the preparation solution in a concentration of 1000 ppm. Bell pepper plants (Capsicum annuum) severely infested by the green peach aphid (Myzus persicae) are treated by spraying with the active ingredient formulation in the desired concentration. After the desired time, the kill in % is determined. 100% means that all the animals have been killed; 0% means that no animals have been killed.

[11] = test system: Myzus persicae; test: Myzus persicae drench test (MYZUPE D), savoy cabbage plants; details: soil, 240 h, 10 dat, read-out: % efficacy
Method: [table] To produce an appropriate active ingredient formulation, 1 part by weight of active ingredient is mixed with the specified amounts of solvent and emulsifier and the concentrate is diluted to the desired concentration with water, it being necessary to take into account the volume of soil into which drenching is effected. It should be ensured that a concentration of 40 ppm of emulsifier in the soil is not exceeded. For production of further test concentrations, the mixture is diluted with water. Savoy cabbage plants (Brassica oleracea) in soil pots, infested by all stages of the green peach aphid (Myzus persicae), are drenched with an active ingredient formulation of the desired concentration. After the desired time, the efficacy in % is determined. 100% means that all the aphids have been killed; 0% means that no aphids have been killed.

[12] = test system: Aphis gossypii; test: Aphis gossypii spray test (APHIGO), cotton plants; details: Aphis gossypii, 144 h, 20 ppm, 6 dat, read-out: % efficacy
Method: [table] To produce an appropriate active ingredient formulation, 1 part by weight of active ingredient is dissolved with the specified parts by weight of solvent and made up with water containing an emulsifier concentration of 1000 ppm until the desired concentration is attained. To produce further test concentrations, the mixture is diluted with emulsifier-containing water. If addition of ammonium salts or/and penetrants is required, these are each added to the preparation solution in a concentration of 1000 ppm. Cotton plants (Gossypium hirsutum) severely infested by the cotton aphid (Aphis gossypii) are sprayed with an active ingredient formulation of the desired concentration. After the desired time, the kill in % is determined. 100% means that all aphids have been killed; 0% means that no aphids have been killed.

[13] = test system: Musca domestica; test: Musca domestica test; details: 100 ppm, adult houseflies, after 2 days
Method: Solvent: dimethyl sulfoxide To produce a suitable active ingredient formulation, 10 mg of active ingredient are mixed with 0.5 ml of dimethyl sulfoxide, and the concentrate is diluted with water to the desired concentration. Vessels containing a sponge treated with sugar solution and the active ingredient formulation of the desired concentration are populated with 10 adult houseflies (Musca domestica). After 2 days, the kill in % is determined. 100% means that all of the flies have been killed; 0% means that none of the flies have been killed.

[14] = 5 days (5 dat), read-out: efficacy

Row | SMILES | efficacy (kill) [1] [%] | pest or weed control at 100 g/ha [2] [%] | percent efficacy (larval mortality) at a fixed application rate at 20 g/ha ([2]; PHAECO, 20 g/ha, 7 dat) [%] | pest or weed control at 100 ppm [3] [%] | pest or weed control at 0.8 ppm [4] [%] | pest or weed control at 100 g/ha [5, 14] [%] | efficacy [6] [%] | also measured
1 | CN(C)C(=O)Nc1ccc(S(C)(=O)=O)c(-c2nc3cc(C(F)(F)C(F)(F)F)nnc3n2C)n1 [Example I-12] | 100 | 100 | 100 | 100 | 100 | 90 | 100 | pest or weed control at 20 g/ha ([5]; 20 g/ha, 5 days (5 dat), read-out: efficacy): 90%; pest or weed control at 20 ppm [7]: 100%
2 | CCS(=O)(=O)c1ccc(N(C)C(=O)NC)nc1-c1nc2cc(C(F)(F)F)nnc2n1C [reference compound] |  |  | 33 |  |  |  |  | Emax at 4 g/ha ([2]; PHAECO, 4 g/ha, 7 dat, read-out: % efficacy): 0%; Emax at 4 g/ha ([8]; 4 g/ha): 0%; Emax at 100 g/ha [9]: 0%; Emax at 4 g/ha ([5]; MYZUPE, 4 g/ha, 5 dat, read-out: % efficacy): 0%; Emax at 0.16 ppm ([10]; 0.16 ppm): 20%; Emax at 0.8 ppm ([10]; 0.8 ppm): 65%; Emax at 0.16 ppm ([11]; 0.16 ppm): 0%
3 | CNC(=O)Nc1ccc(S(C)(=O)=O)c(-c2nc3cc(C(F)(F)C(F)(F)F)nnc3n2C)n1 [Example I-11] | 100 | 100 |  | 100 | 100 |  | 100 | Emax at 20 g/ha ([2]; PHAECO, 20 g/ha, 7 dat, read-out: % efficacy): 83%; Emax at 20 g/ha ([8]; 20 g/ha): 100%; Emax at 20 ppm [12]: 95%; Emax at 0.8 ppm ([11]; 0.8 ppm): 95%; Emax at 4 ppm ([11]; 4 ppm): 98%
4 | CCNC(=O)c1ccc(S(=O)(=O)CC)c(-c2nc3cc(C(F)(F)C(F)(F)F)nnc3n2C)n1 [Example I-04, N-ethyl-5-(ethylsulfonyl)-6-[7-methyl-3-(pentafluoroethyl)-7H-imidazo[4,5-c]pyridazin-6-yl]pyridine-2-carboxamide] |  | 100 |  | 100 | 100 | 100 |  | efficacy (kill) [13]: 80%
